*1 amine or outer side, *2 acyl side, *3 side chain or, on linkers, in order; H or OH if unused. Where a SMILES comes first, the peptide text is derived from it. Bridges are numbered along the chain shown (N, C = ends). X1 = C=C(N[*:2])c1nc(-c2nc(-c3nc(C(=O)OC)cs3)ccc2C(=O)[*:1])cs1
How the values were obtained:
c-Myc = c-Myc protein level in HCT116 cells (immunoblotting); type: cell-based, human; settings: 20 μM, 24 hours
Protocol: (§1) The sub-confluent HCT116 cells were treated with the indicated compounds for 24 hours and the cellular levels of TNIK, TNIK pSer764 (autophosphorylation product), c-Myc, and Axin2 were analyzed by an immunoblotting method (FIG. 7(b)) and RT-qPCR (FIG. 7(c)).

TNIK [1] = target: T1, TNIK (Homo sapiens, UniProt Q9UKE5); experiment: Surface plasmon resonance (SPR) binding affinity to TNIK; settings: saturated concentration of ATP (1 mM; 15-fold higher than KM)
T1 sequence (Q9UKE5 whole entry): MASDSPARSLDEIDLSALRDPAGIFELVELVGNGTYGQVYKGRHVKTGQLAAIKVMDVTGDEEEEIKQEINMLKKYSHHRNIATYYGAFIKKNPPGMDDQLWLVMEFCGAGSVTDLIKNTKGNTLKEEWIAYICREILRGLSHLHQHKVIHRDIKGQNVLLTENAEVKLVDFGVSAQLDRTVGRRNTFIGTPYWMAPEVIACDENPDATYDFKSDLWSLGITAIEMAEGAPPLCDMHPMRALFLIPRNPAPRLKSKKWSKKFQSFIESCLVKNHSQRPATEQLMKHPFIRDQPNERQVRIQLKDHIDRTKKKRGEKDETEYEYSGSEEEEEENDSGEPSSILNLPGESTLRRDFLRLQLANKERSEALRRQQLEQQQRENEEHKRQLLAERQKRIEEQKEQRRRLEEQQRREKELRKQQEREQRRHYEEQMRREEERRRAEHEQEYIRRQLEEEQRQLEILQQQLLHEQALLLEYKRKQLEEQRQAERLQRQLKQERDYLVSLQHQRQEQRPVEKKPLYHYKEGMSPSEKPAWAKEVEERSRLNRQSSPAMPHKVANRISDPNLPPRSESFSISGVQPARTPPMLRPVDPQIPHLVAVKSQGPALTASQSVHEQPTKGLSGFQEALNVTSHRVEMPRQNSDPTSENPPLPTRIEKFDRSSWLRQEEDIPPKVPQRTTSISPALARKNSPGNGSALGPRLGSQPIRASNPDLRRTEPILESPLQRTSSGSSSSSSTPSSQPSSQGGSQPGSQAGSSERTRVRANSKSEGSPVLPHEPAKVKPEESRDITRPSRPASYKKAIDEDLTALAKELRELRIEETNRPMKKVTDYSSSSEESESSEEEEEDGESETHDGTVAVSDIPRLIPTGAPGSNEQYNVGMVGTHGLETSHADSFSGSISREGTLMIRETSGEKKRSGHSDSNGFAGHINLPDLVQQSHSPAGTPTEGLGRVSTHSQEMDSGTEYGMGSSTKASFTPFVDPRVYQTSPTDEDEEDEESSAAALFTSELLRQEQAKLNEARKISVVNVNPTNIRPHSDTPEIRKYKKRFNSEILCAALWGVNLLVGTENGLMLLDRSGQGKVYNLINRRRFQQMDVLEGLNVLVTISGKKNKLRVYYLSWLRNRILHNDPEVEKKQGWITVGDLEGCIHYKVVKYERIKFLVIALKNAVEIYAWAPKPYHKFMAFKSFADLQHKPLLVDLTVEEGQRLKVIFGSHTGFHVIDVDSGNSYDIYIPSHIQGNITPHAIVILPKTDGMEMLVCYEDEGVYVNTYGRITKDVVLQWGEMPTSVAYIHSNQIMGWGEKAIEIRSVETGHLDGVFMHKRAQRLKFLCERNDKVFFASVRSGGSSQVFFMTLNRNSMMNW
Source text: Surface plasmon resonance (SPR) was used to evaluate the binding affinity of the thiopeptide synthesized in Example 2 to TNIK.

HEK293H cells = experiment: Chloroalkane penetration assay (CAPA) in HEK293H cells; type: cell-based, human; settings: chloroalkane-labeled derivatives
Protocol: as §1
Next, it was confirmed whether or not the obtained compound could also access an intracellular target protein (TNIK is localized in the cytoplasm and the cell nucleus) in a human cell model. First, a chloroalkane penetration assay (CAPA) was performed on 4 types (TP1-ct, TP8-ct, TP14-ct, and TP15-ct) out of the 6 types of chloroalkane-labeled thiopeptide derivatives shown in FIG. 5 in order to measure an uptake degree into the cytoplasm (Peraro, L.; Deprey, K. L.; Moser, M. K.; Zou, Z.; Ball, H. L.; Levine, B.; and Kritzer, J. A. Cell Penetration Profiling Using the Chloroalkane Penetration Assay. J. Am. Chem. Soc. 2018, 140, 11360-11369).

AXIN2 mRNA = AXIN2 mRNA transcription in HCT116 cells (RT-qPCR); type: cell-based, human
Protocol: as §1

LOK = LOK (Homo sapiens, UniProt O94804); experiment: Kinase selectivity profiling (LOK); type: biochemical; settings: concentration of 1 μM
Sequence of LOK (O94804 whole entry): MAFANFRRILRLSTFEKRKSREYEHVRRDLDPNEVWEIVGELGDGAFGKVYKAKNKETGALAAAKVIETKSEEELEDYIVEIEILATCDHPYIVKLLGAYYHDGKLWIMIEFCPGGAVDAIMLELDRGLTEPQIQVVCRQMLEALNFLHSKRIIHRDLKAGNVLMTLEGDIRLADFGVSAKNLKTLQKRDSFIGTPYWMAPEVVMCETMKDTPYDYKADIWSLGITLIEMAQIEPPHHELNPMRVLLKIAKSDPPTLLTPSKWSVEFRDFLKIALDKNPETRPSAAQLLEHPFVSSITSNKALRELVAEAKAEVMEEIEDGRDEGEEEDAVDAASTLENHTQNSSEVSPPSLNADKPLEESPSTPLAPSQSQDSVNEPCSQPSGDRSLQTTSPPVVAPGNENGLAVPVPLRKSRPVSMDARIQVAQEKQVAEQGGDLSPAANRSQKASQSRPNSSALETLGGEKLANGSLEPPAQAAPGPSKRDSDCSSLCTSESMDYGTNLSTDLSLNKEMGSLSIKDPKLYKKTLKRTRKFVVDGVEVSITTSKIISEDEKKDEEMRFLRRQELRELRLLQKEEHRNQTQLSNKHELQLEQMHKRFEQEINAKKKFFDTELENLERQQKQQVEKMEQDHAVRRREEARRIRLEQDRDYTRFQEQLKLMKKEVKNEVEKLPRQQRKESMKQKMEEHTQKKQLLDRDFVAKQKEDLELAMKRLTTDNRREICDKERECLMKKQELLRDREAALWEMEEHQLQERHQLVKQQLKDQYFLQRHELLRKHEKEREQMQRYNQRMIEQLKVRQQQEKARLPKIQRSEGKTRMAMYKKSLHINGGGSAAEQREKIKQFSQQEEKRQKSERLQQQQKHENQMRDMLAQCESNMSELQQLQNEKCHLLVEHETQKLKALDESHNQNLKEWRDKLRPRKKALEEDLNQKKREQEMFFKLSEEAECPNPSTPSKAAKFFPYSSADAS
Protocol: (§2) Next, a kinase selectivity profiling experiment was carried out using a panel of various human kinases.

TNIK pSer764 = experiment: Immunoblotting of TNIK pSer764 (TNIK autophosphorylation) in HCT116 cells; type: cell-based, human
Protocol: as §1
Nat. Commun. 2016, 7, 12586).

[2] = Metabolic stability in human serum (LC/MS); type: in vitro ADME; settings: 37 °C
Protocol: The compounds were incubated with a human serum at 37 °C, and the amount of the residual test substance at various points in time was quantified by LC/MS with respect to an internal standard substance. […] Next, it was examined whether or not the half-lives of the compounds were affected by the reactivity of the Dha residue. The Dha residue may be conjugated with various serum thiols.
In addition, the metabolic stability of all of the 14 types of candidate thiopeptides was examined. The compound was incubated with the human serum at 37 °C, and the amount of the residual thiopeptide at various points in time was quantified by LC/MS with respect to the internal standard substance. The half-life of the thiopeptide for TLR10 was generally as long as 38.2 hours, and the thiopeptide was stable.

TNIK [3] = target: T1, TNIK; experiment: Kinetic analysis (Lineweaver-Burk plots) of TNIK inhibition; type: biochemical; settings: role: inhibitor
TNIK mRNA = TNIK mRNA level in HCT116 cells (RT-qPCR); type: cell-based, human
Protocol: as §1

Axin2 = Axin2 protein level in HCT116 cells (immunoblotting); type: cell-based, human; settings: 20 μM, 24 hours
Protocol: as §1

TNIK [4] = experiment: TNIK protein level in HCT116 cells (immunoblotting); type: cell-based, human
Protocol: as §1

MST1 = target: T2, MST1 (Homo sapiens, UniProt Q13043); experiment: Kinase selectivity profiling (MST1); type: biochemical; settings: concentration of 1 μM
T2 sequence (Q13043 1-487): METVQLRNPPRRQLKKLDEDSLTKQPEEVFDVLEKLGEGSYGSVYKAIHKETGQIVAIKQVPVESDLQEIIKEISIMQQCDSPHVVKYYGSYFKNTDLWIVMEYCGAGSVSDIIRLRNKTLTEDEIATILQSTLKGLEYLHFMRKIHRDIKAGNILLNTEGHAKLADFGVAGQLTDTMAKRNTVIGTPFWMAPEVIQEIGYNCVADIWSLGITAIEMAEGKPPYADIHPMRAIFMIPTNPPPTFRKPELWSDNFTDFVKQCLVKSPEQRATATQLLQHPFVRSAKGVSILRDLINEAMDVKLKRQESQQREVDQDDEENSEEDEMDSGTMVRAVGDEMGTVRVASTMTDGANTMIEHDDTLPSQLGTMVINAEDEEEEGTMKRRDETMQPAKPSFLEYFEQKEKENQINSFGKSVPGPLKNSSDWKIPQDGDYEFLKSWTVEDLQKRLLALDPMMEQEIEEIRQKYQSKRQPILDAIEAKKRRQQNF
Protocol: as §2

MYC mRNA = MYC mRNA transcription in HCT116 cells (RT-qPCR); type: cell-based, human
Protocol: as §1

[5] = Stability / reactivity towards glutathione (GSH), LC/MS; type: physicochemical
TLR10 = target: T3, TLR10 (Homo sapiens, UniProt Q9BXR5); experiment: Surface plasmon resonance (SPR) binding affinity to TLR10
T3 sequence (Q9BXR5 20-811): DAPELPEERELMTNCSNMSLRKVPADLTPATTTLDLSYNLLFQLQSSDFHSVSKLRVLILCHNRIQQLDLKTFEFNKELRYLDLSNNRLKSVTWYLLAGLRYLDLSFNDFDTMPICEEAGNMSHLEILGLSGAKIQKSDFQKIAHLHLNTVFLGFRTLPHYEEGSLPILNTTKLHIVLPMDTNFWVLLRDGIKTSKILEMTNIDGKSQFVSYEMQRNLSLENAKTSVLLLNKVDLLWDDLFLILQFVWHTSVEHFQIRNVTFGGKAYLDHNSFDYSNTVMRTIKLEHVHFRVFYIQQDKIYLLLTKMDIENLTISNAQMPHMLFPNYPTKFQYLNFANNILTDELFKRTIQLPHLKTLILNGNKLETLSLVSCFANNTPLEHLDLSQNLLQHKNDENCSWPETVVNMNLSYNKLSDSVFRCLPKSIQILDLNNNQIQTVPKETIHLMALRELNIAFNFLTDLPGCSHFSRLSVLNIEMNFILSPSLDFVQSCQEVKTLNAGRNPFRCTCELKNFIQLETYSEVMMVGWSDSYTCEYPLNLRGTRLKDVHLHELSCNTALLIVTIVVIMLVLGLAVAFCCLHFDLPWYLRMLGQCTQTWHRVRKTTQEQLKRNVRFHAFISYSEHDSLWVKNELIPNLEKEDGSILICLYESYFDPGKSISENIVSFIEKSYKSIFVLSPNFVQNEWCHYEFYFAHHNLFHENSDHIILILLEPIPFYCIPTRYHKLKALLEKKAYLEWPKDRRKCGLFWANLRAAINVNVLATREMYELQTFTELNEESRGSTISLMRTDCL
Protocol: Next, the binding affinity of each of the synthesized thiopeptides (14 types excluding IR1-ct and IR15-ct in FIG. 8) to the target IRAK4 and TLR10 was examined using surface plasmon resonance (SPR). […] Next, using an ADP-Glo-based kinase inhibition assay, the IC50 values of 4 types of thiopeptides for IRAK4 excluding IR1-ct and IR15-ct were evaluated.

| cytoplasmic uptake (CAPA), in words (HEK293H cells) | inhibition of LOK (LOK) | stability in human serum, in words [2] | mode of TNIK inhibition (TNIK [3]) | inhibition of MST1 (MST1) | residual amount in the presence of GSH ([5]; 10 mM GSH, after 24 hours) [%] | reactivity with GSH, in words ([5]; increasing concentration of glutathione (GSH)) | Kd (TLR10) [nM] | Structure (SMILES) | protein level of c-Myc (c-Myc) | binding to TNIK in the presence of ATP (TNIK [1]) | transcription of AXIN2 mRNA (AXIN2 mRNA) | level of TNIK pSer764 (TNIK pSer764; 20 μM of TP15, 24 hours, immunoblotting) | TNIK autophosphorylation, in words (figure legend) (TNIK pSer764; 24 hours) | overall expression of TNIK, mRNA level (TNIK mRNA) | protein level of Axin2 (Axin2) | overall expression of TNIK, protein level (TNIK [4]) | transcription of MYC mRNA (MYC mRNA) |
| --- | --- | --- | --- | --- | --- | --- | --- | --- | --- | --- | --- | --- | --- | --- | --- | --- | --- |
| efficient cytoplasmic translocation | inhibited | short half-life | substrate competitive inhibitor | inhibited | > 95 | stable |  | C=C1NC(=O)c2csc(n2)[C@H]([C@@H](C)O)NC(=O)[C@H](C)NC(=O)[C@H]([C@@H](C)CC)NC(=O)[C@H](CCCNC(=N)N)NC(=O)CNC(=O)[C@H](CCCNC(=N)N)NC(=O)[C@H]([C@@H](C)O)NC(=O)[C@H](CCCNC(=N)N)NC(=O)[C@H]([C@@H](C)CC)NC(=O)[C@H]([C@@H](C)O)NC(=O)[C@H](Cc2c[nH]c3ccccc23)NC(=O)c2ccc(-c3nc(C(=O)OC)cs3)nc2-c2csc1n2 [TP15] | decreased | bonded to TNIK in the presence of the saturated concentration of ATP | suppressed in a concentration-dependent manner | decreased | inhibition of TNIK autophosphorylation | not TP15 | decreased | not TP15 | suppressed in a concentration-dependent manner |
|  |  |  |  |  |  |  | 306 | C=C1NC(=O)[C@H](Cc2c[nH]cn2)NC(=O)[C@H]([C@@H](C)CC)NC(=O)[C@H](C(C)C)NC(=O)[C@H](C(C)C)NC(=O)[C@H](CC(N)=O)NC(=O)[C@H](C(C)C)NC(=O)[C@H](CCCNC(=N)N)NC(=O)[C@H](CO)NC(=O)[C@H](CC(C)C)NC(=O)[C@H](CCC(=O)O)NC(=O)[C@H](CC(C)C)NC(=O)[C@H](CO)NC(=O)[C@H](Cc2c[nH]c3ccccc23)NC(=O)c2ccc(-c3nc(C(=O)OC)cs3)nc2-c2csc1n2 [TL7] (WSLELSRVNVVIH; linker N-C via X1) |  |  |  |  |  |  |  |  |  |

Source: patent US20260365699A1, “Compound Production Method” (The University of Tokyo, priority 2022, published 2026)
